Converted amounts (≈) assume the structure as drawn.

The test system of one series is E. coli YHP05 strain. The series is described as follows: MIC measurement to cinnamaldehyde of E. coli. The class given is cell-based. The conditions noted are these: LB liquid medium, 37° C., 16 hrs.
The subject of another series is E. coli MG1655 strain. Description: microbe, parasite or virus in culture. The following applies: Escherichia coli, MG1655, 16 h, read-out: phenol concentration at which growth was totally inhibited (MIC).
Another series concerns E. coli YHP05. The series is described as follows: Screening of transformed E. coli living in cinnamaldehyde MIC (artificial ncRNA expression). The class given is cell-based. The following applies: transformed E. coli YHP05, LB medium comprising 350 ug/ml cinnamaldehyde, 1 mM IPTG, 16 hrs. Here is the method: In order to develop an artificial ncRNA to make E. coli survived at 300 ug/ml of cinnamaldehyde concentration, E. coli YHP05 was transformed by the plasmid library which can express genome-originated artificial ncRNA constructed in the Example 3-5, and after transformed ˜500,000 colonies were cultured for 16 hrs, they were diluted to 1:100 and cultured for 16 hrs again in a LB medium comprising 350 ug/ml cinnamaldehyde, 1 mM IPTG, and the result was shown in FIG. 6 and table 6.

For the molecule `O=CC=Cc1ccccc1` [cinnamaldehyde], the OD600 in the series with E. coli YHP05 strain (100 ug/ml cinnamaldehyde) was determined as 3.08; in the series on E. coli YHP05 strain (150 ug/ml cinnamaldehyde), 2.74; with E. coli YHP05 strain (200 ug/ml cinnamaldehyde), 2.25; in the series with E. coli YHP05 strain (250 ug/ml cinnamaldehyde), 0.341; in the series with E. coli YHP05 strain (300 ug/ml cinnamaldehyde), 0.091; in the series on E. coli YHP05 strain (400 ug/ml cinnamaldehyde) it was 0.083. Further, in the series with E. coli YHP05 strain (500 ug/ml cinnamaldehyde), the OD600 stood at 0.062. In the series with E. coli YHP05 strain (Escherichia coli, YHP05STRAIN, read-out: cinnamaldehyde concentration at which cells were not grown (MIC)), the MIC was 300 µg/mL (≈ 2270 µM).
As to `Oc1ccccc1` [phenol], in the series on E. coli MG1655 strain, the MIC is 20 mM (≈ 1880 µg/mL).
With “clone 8: artificial ncRNA improving resistance to cinnamaldehyde, genome insert of SEQ ID NO: 19 (DNA AATCCCTCAATGATGCCTGGAATCGCTCTTTTA; expressed or natural sequence)”, the OD600 in the series on E. coli YHP05 is 0.32.
Turning to “clone 9: artificial ncRNA improving resistance to cinnamaldehyde, genome insert of SEQ ID NO: 20 (DNA GGCGCTGCATCCGCGTTATAGCCGCGCCCAGTATGACCGGGTAATGGA; expressed or natural sequence)”, the OD600 in the series on E. coli YHP05 is 0.2403.

B1: clone 7: artificial ncRNA improving resistance to cinnamaldehyde, genome insert of SEQ ID NO: 18 (nucleic acid)
DNA: AACGCAGGGCGTTCGAAAGCAGGTTGCTTAGCGCCCGACGCAGCATCAGCGGATCGCCCGCGACCTGACACTTGTCGCCAACAAACCGCAACTCCACGCCGCGATCTTCCGCTAACGCCTCGAAAAAATCGAACACTTTGCCGACTTCATCCGCCAG
modifications: cinnamic aldehyde_reg_06
With B1, the OD600 with E. coli YHP05 is recorded as 0.411.

B2: clone 6: artificial ncRNA improving resistance to cinnamaldehyde, genome insert of SEQ ID NO: 17 (nucleic acid)
DNA: TATTCATTGCTTCTACCCGTGCCTCGCTTTCTGTATTACGAAATTGTCCCAACACATGTGCCAGCCGATAAAAACCCAC
modifications: expressed or natural sequence
Regarding B2, the OD600 with E. coli YHP05 was determined as 0.2757.
